Tests used:
[1] = Hydrolysis of aspirin in choline chloride/urea deep eutectic solvent, determined using HPLC; type: physicochemical
Method: In this example, an aspirin formulation was prepared using choline chloride and urea. In this example, choline chloride was heated in an oven at 65° C. for 10 hours. Then, 1 part choline chloride (by volume) was added to 2 parts urea in a beaker. The beaker was sealed with parafilm and the choline chloride and urea allowed to mix to form a deep eutectic solvent (DES). Next, the mixture was passed through a 4A 8-12 mesh molecular sieve, and stirred overnight, to form anhydrous DES.
50 mg/ml of aspirin was then added to the DES. […] The hydrolysis was determined using HPLC.
It is believed that heating the choline chloride removes water.

[2] = values stated in description, no method given; cited from earlier work

Row | SMILES | aspirin found to have hydrolyzed ([1]; 50 mg/ml aspirin in anhydrous DES (1 part choline chloride : 2 parts urea by volume), choline chloride heated at 65° C. for 10 hours, molecular sieve, HPLC) [%] | aspirin found to hydrolyze ([1]; comparison: choline chloride and urea mixed without heating the choline chloride, same procedure otherwise) | pKa [2]
1 | CC(=O)Oc1ccccc1C(=O)O [aspirin, acetylsalicylic acid] | 1 | over 8% | –
2 | CN(C)CCc1c[nH]c2ccc(CS(=O)(=O)N3CCCC3)cc12 [almotriptan] | – | – | 8.77
3 | CN[C@@H]1CCc2[nH]c3ccc(C(N)=O)cc3c2C1 [frovatriptan] | – | – | 17.27
